In patent publication US7118895B2, “Process for producing aglycon by using diglycosidase and flavor-improved food containing the aglycon and converting agent to be used in the process” (Amano Enzyme Inc., priority 2000, dated 2006):

Key:
[1] = system: β-Glucosidase derived from A. niger; test: Reactivity toward various isoflavone glycosides (HPLC); type: biochemical, Aspergillus niger; design: glucoside / aglycon: unit not given here; settings: 55 °C, pH 4.0
Method in brief: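 Aglycone liberation was measured by reversed-phase HPLC (260 nm, calibration-curve quantitation) after ethanol extraction at 0, 1, 3 and 6 h. Reactions ran at 55° C, pH 4.0 (20 mM acetate), with each glycoside (from 2 mM methanol stock) and 0.75 AU/mL enzyme solution.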

Crude diglycosidase = test: Examination of substrate concentration in the conversion into isoflavone aglycons by diglycosidase using soybean materials; type: biochemical, Penicillium multicolor IAM7153;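 also: percent of the isoflavone family total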
Method in brief: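 Reaction at 55° C, shaken, pH 4.0 (20 mM acetate), using crude diglycosidase from a 1.88 AU/mL enzyme solution on soy flour, soymilk, defatted soybean or soy protein concentrate at 2, 5, 10, 20 or 30% (w/v). Isoflavone aglycons quantified by HPLC of ethanol extracts at 0, 1, 3, 6 h.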

Question: How did the “reactivity of β-glucosidase derived from Aspergillus niger (in words)” value [1] turn out when `COc1cc2c(=O)c(-c3ccc(O)cc3)coc2cc1O[C@@H]1O[C@H](CO)[C@@H](O)[C@H](O)[C@H]1O` [glycitin] was run?
Answer: The value was “act well”.

Question: And the aglycon ([1]; Reaction time 0 h)?
Answer: Its aglycon is 0.

Question: What about the glucoside ([1]; Reaction time 0 h) of the same compound?
Answer: The glucoside was 100.

Question: What about the aglycon ([1]; Reaction time 1 h) of the same compound?
Answer: The aglycon was 49.5.

Question: What about the glucoside ([1]; Reaction time 1 h) of the same compound?
Answer: Its glucoside is 50.5.

Question: And the aglycon ([1]; Reaction time 3 h)?
Answer: The aglycon was 88.3.

Question: What about the glucoside ([1]; Reaction time 3 h) of the same compound?
Answer: The glucoside was 11.7.

Question: What about the aglycon ([1]; Reaction time 6 h) of the same compound?
Answer: The aglycon was 95.5.

Question: What about the glucoside ([1]; Reaction time 6 h) of the same compound?
Answer: The glucoside was 4.5.

Question: What about the “Decomposition efficiency: ratio of each glycoside/aglycon within its isoflavone family” value (Crude diglycosidase; concentrated soybean protein, substrate concentration 2%, heat treatment of enzyme no, reaction time 0 h) of the same compound?
Answer: The value was 52.2%.

Question: What about the “Decomposition efficiency: ratio of each glycoside/aglycon within its isoflavone family” value (Crude diglycosidase; concentrated soybean protein, substrate concentration 2%, heat treatment of enzyme no, reaction time 1 h) of the same compound?
Answer: The value was “not detected”.

Question: And the “Decomposition efficiency: ratio of each glycoside/aglycon within its isoflavone family” value (Crude diglycosidase; concentrated soybean protein, substrate concentration 2%, heat treatment of enzyme no, reaction time 3 h)?
Answer: Its value is “not detected”.

Question: And the “Decomposition efficiency: ratio of each glycoside/aglycon within its isoflavone family” value (Crude diglycosidase; concentrated soybean protein, substrate concentration 2%, heat treatment of enzyme no, reaction time 6 h)?
Answer: The value was “not detected”.

Question: What about the “Decomposition efficiency: ratio of each glycoside/aglycon within its isoflavone family” value (Crude diglycosidase; concentrated soybean protein, substrate concentration 2%, heat treatment of enzyme yes, reaction time 6 h) of the same compound?
Answer: Its value is 53.4%.

Question: What about the “Decomposition efficiency: ratio of each glycoside/aglycon within its isoflavone family” value (Crude diglycosidase; concentrated soybean protein, substrate concentration 5%, heat treatment of enzyme no, reaction time 0 h) of the same compound?
Answer: The value was 52.9%.

Question: And the “Decomposition efficiency: ratio of each glycoside/aglycon within its isoflavone family” value (Crude diglycosidase; concentrated soybean protein, substrate concentration 5%, heat treatment of enzyme no, reaction time 1 h)?
Answer: The value was “not detected”.

Question: What about the “Decomposition efficiency: ratio of each glycoside/aglycon within its isoflavone family” value (Crude diglycosidase; concentrated soybean protein, substrate concentration 5%, heat treatment of enzyme no, reaction time 3 h) of the same compound?
Answer: The value was “not detected”.

Question: And the “Decomposition efficiency: ratio of each glycoside/aglycon within its isoflavone family” value (Crude diglycosidase; concentrated soybean protein, substrate concentration 5%, heat treatment of enzyme no, reaction time 6 h)?
Answer: The value was “not detected”.

Question: And the “Decomposition efficiency: ratio of each glycoside/aglycon within its isoflavone family” value (Crude diglycosidase; concentrated soybean protein, substrate concentration 5%, heat treatment of enzyme yes, reaction time 6 h)?
Answer: Its value is 54.0%.

Question: What about the “Decomposition efficiency: ratio of each glycoside/aglycon within its isoflavone family” value (Crude diglycosidase; concentrated soybean protein, substrate concentration 10%, heat treatment of enzyme no, reaction time 0 h) of the same compound?
Answer: Its value is 52.9%.

Question: What about the “Decomposition efficiency: ratio of each glycoside/aglycon within its isoflavone family” value (Crude diglycosidase; concentrated soybean protein, substrate concentration 10%, heat treatment of enzyme no, reaction time 1 h) of the same compound?
Answer: Its value is 1.6%.

Question: What about the “Decomposition efficiency: ratio of each glycoside/aglycon within its isoflavone family” value (Crude diglycosidase; concentrated soybean protein, substrate concentration 10%, heat treatment of enzyme no, reaction time 3 h) of the same compound?
Answer: The value was “not detected”.

Question: What about the “Decomposition efficiency: ratio of each glycoside/aglycon within its isoflavone family” value (Crude diglycosidase; concentrated soybean protein, substrate concentration 10%, heat treatment of enzyme no, reaction time 6 h) of the same compound?
Answer: Its value is “not detected”.

Question: And the “Decomposition efficiency: ratio of each glycoside/aglycon within its isoflavone family” value (Crude diglycosidase; concentrated soybean protein, substrate concentration 10%, heat treatment of enzyme yes, reaction time 6 h)?
Answer: The value was 53.4%.

Question: And the “Decomposition efficiency: ratio of each glycoside/aglycon within its isoflavone family” value (Crude diglycosidase; concentrated soybean protein, substrate concentration 20%, heat treatment of enzyme no, reaction time 0 h)?
Answer: The value was 53.1%.

Question: And the “Decomposition efficiency: ratio of each glycoside/aglycon within its isoflavone family” value (Crude diglycosidase; concentrated soybean protein, substrate concentration 20%, heat treatment of enzyme no, reaction time 1 h)?
Answer: The value was 13.2%.

Question: What about the “Decomposition efficiency: ratio of each glycoside/aglycon within its isoflavone family” value (Crude diglycosidase; concentrated soybean protein, substrate concentration 20%, heat treatment of enzyme no, reaction time 3 h) of the same compound?
Answer: The value was “not detected”.

Question: And the “Decomposition efficiency: ratio of each glycoside/aglycon within its isoflavone family” value (Crude diglycosidase; concentrated soybean protein, substrate concentration 20%, heat treatment of enzyme no, reaction time 6 h)?
Answer: Its value is “not detected”.

Question: What about the “Decomposition efficiency: ratio of each glycoside/aglycon within its isoflavone family” value (Crude diglycosidase; concentrated soybean protein, substrate concentration 20%, heat treatment of enzyme yes, reaction time 6 h) of the same compound?
Answer: Its value is 52.8%.

Question: What about the “Decomposition efficiency: ratio of each glycoside/aglycon within its isoflavone family” value (Crude diglycosidase; concentrated soybean protein, substrate concentration 30%, heat treatment of enzyme no, reaction time 0 h) of the same compound?
Answer: Its value is 57.5%.

Question: What about the “Decomposition efficiency: ratio of each glycoside/aglycon within its isoflavone family” value (Crude diglycosidase; concentrated soybean protein, substrate concentration 30%, heat treatment of enzyme no, reaction time 1 h) of the same compound?
Answer: Its value is 2.0%.

Question: What about the “Decomposition efficiency: ratio of each glycoside/aglycon within its isoflavone family” value (Crude diglycosidase; concentrated soybean protein, substrate concentration 30%, heat treatment of enzyme no, reaction time 3 h) of the same compound?
Answer: Its value is “not detected”.

Question: And the “Decomposition efficiency: ratio of each glycoside/aglycon within its isoflavone family” value (Crude diglycosidase; concentrated soybean protein, substrate concentration 30%, heat treatment of enzyme no, reaction time 6 h)?
Answer: The value was “not detected”.

Question: What about the “Decomposition efficiency: ratio of each glycoside/aglycon within its isoflavone family” value (Crude diglycosidase; concentrated soybean protein, substrate concentration 30%, heat treatment of enzyme yes, reaction time 6 h) of the same compound?
Answer: Its value is 58.0%.

Question: And the “Decomposition efficiency: ratio of each glycoside/aglycon within its isoflavone family” value (Crude diglycosidase; defatted soybean, substrate concentration 2%, heat treatment of enzyme no, reaction time 0 h)?
Answer: The value was “not detected”.

Question: What about the “Decomposition efficiency: ratio of each glycoside/aglycon within its isoflavone family” value (Crude diglycosidase; defatted soybean, substrate concentration 2%, heat treatment of enzyme no, reaction time 1 h) of the same compound?
Answer: The value was “not detected”.

Question: What about the “Decomposition efficiency: ratio of each glycoside/aglycon within its isoflavone family” value (Crude diglycosidase; defatted soybean, substrate concentration 2%, heat treatment of enzyme no, reaction time 3 h) of the same compound?
Answer: The value was “not detected”.

Question: What about the “Decomposition efficiency: ratio of each glycoside/aglycon within its isoflavone family” value (Crude diglycosidase; defatted soybean, substrate concentration 2%, heat treatment of enzyme no, reaction time 6 h) of the same compound?
Answer: The value was “not detected”.

Question: What about the “Decomposition efficiency: ratio of each glycoside/aglycon within its isoflavone family” value (Crude diglycosidase; defatted soybean, substrate concentration 2%, heat treatment of enzyme yes, reaction time 6 h) of the same compound?
Answer: Its value is “not detected”.

Question: And the “Decomposition efficiency: ratio of each glycoside/aglycon within its isoflavone family” value (Crude diglycosidase; defatted soybean, substrate concentration 5%, heat treatment of enzyme no, reaction time 0 h)?
Answer: Its value is “not detected”.

Question: And the “Decomposition efficiency: ratio of each glycoside/aglycon within its isoflavone family” value (Crude diglycosidase; defatted soybean, substrate concentration 5%, heat treatment of enzyme no, reaction time 1 h)?
Answer: Its value is “not detected”.

Question: What about the “Decomposition efficiency: ratio of each glycoside/aglycon within its isoflavone family” value (Crude diglycosidase; defatted soybean, substrate concentration 5%, heat treatment of enzyme no, reaction time 3 h) of the same compound?
Answer: The value was “not detected”.

Question: What about the “Decomposition efficiency: ratio of each glycoside/aglycon within its isoflavone family” value (Crude diglycosidase; defatted soybean, substrate concentration 5%, heat treatment of enzyme no, reaction time 6 h) of the same compound?
Answer: The value was “not detected”.

Question: And the “Decomposition efficiency: ratio of each glycoside/aglycon within its isoflavone family” value (Crude diglycosidase; defatted soybean, substrate concentration 5%, heat treatment of enzyme yes, reaction time 6 h)?
Answer: The value was “not detected”.

Question: And the “Decomposition efficiency: ratio of each glycoside/aglycon within its isoflavone family” value (Crude diglycosidase; defatted soybean, substrate concentration 10%, heat treatment of enzyme no, reaction time 0 h)?
Answer: Its value is “not detected”.

Question: And the “Decomposition efficiency: ratio of each glycoside/aglycon within its isoflavone family” value (Crude diglycosidase; defatted soybean, substrate concentration 10%, heat treatment of enzyme no, reaction time 1 h)?
Answer: Its value is “not detected”.

Question: And the “Decomposition efficiency: ratio of each glycoside/aglycon within its isoflavone family” value (Crude diglycosidase; defatted soybean, substrate concentration 10%, heat treatment of enzyme no, reaction time 3 h)?
Answer: The value was “not detected”.

Question: What about the “Decomposition efficiency: ratio of each glycoside/aglycon within its isoflavone family” value (Crude diglycosidase; defatted soybean, substrate concentration 10%, heat treatment of enzyme no, reaction time 6 h) of the same compound?
Answer: Its value is “not detected”.

Question: What about the “Decomposition efficiency: ratio of each glycoside/aglycon within its isoflavone family” value (Crude diglycosidase; defatted soybean, substrate concentration 10%, heat treatment of enzyme yes, reaction time 6 h) of the same compound?
Answer: Its value is “not detected”.
